*1 amine or outer side, *2 acyl side, *3 side chain or, on linkers, in order; H or OH if unused. Where a SMILES comes first, the peptide text is derived from it. Bridges are numbered along the chain shown (N, C = ends). [ ]: non-standard residue; d: D form. TATA = O=C(CC[*:1])N1CN(C(=O)CC[*:2])CN(C(=O)CC[*:3])C1; Agb = N=C(N)NCC[C@H](N)C(=O)O; hLys = NCCCCC[C@H](N)C(=O)O; Nva = CCC[C@H](N)C(=O)O
Target: T1, Coagulation factor XII (Homo sapiens, UniProt P00748)
T1 sequence (P00748 whole entry): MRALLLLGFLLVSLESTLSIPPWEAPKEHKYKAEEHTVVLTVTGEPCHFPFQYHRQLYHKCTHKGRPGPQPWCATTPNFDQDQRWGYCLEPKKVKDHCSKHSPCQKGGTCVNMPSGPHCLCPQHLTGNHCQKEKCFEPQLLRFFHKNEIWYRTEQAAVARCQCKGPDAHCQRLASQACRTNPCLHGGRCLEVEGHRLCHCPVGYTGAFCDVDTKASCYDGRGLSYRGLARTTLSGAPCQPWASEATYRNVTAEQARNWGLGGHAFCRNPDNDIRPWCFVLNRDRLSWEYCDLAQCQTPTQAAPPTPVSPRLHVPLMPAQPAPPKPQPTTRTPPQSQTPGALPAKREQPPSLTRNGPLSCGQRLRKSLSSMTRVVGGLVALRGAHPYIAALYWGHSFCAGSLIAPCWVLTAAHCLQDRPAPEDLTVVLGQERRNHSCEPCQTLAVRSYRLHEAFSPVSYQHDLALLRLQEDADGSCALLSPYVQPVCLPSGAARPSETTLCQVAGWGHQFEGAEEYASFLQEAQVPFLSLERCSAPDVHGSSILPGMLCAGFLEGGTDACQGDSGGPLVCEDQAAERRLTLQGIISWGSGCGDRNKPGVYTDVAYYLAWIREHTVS
Assay: Inhibition of human beta factor 12a using fluorogenic substrate Boc-Gln-Gly-Arg-AMC preincubated for 10 mins followed by addition of substrate measured every min for 30 mins

Row | SMILES | Ki [nM]
1 | CC(C)C[C@@H]1NC(=O)[C@H](CC(=O)O)NC(=O)[C@H](CCCNC(=N)N)NC(=O)[C@@H]2CSCCC(=O)N3CN(CN(C3)C(=O)CCSC[C@H](NC(=O)[C@@H](N)CCCNC(=N)N)C(=O)N[C@@H](Cc3ccccc3)C(=O)N[C@@H](CCCNC(=N)N)C(=O)N[C@@H](CC(C)C)C(=O)N3CCC[C@H]3C(=O)N2)C(=O)CCSC[C@@H](C(=O)N[C@@H](CCCNC(=N)N)C(=O)N[C@@H](Cc2c[nH]c3ccccc23)C(=O)O)NC(=O)[C@H](CCCNC(=N)N)NC1=O (H-RCFRLPCRDLRCRW-OH; linker 2-7-12 via TATA) | 550
2 | CCC(CC)C1NC(=O)[C@H](CCC(N)=O)NC(=O)[C@H](CCCNC(=N)N)NC(=O)[C@@H]2CSCCC(=O)N3CN(CN(C3)C(=O)CCSC[C@H](NC(=O)[C@@H](N)CCCNC(=N)N)C(=O)N[C@@H](Cc3ccccc3)C(=O)N[C@@H](CCCNC(=N)N)C(=O)N[C@@H](CC(C)C)C(=O)N3CCC[C@H]3C(=O)N2)C(=O)CCSC[C@@H](C(=O)N[C@@H](CCCNC(=N)N)C(=O)N[C@@H](Cc2c[nH]c3ccccc23)C(=O)O)NC(=O)[C@H](CCCNC(=N)N)NC1=O (stereo partly specified) | 38
3 | CC(C)C[C@@H]1NC(=O)[C@H](CCC(N)=O)NC(=O)[C@H](CCCNC(=N)N)NC(=O)[C@@H]2CSCCC(=O)N3CN(CN(C3)C(=O)CCSC[C@H](NC(=O)[C@@H](N)CCCNC(=N)N)C(=O)N[C@@H](Cc3cccc4ccccc34)C(=O)N[C@@H](CCCNC(=N)N)C(=O)N[C@@H](CC(C)C)C(=O)N3CCC[C@H]3C(=O)N2)C(=O)CCSC[C@@H](C(=O)N[C@@H](CCCNC(=N)N)C(=O)N[C@@H](Cc2c[nH]c3ccccc23)C(=O)O)NC(=O)[C@H](CCCNC(=N)N)NC1=O | 10
4 | CC(C)C[C@@H]1NC(=O)[C@H](CCCNC(=N)N)NC(=O)[C@H](Cc2ccccc2)NC(=O)[C@@H](NC(=O)[C@@H](N)CCCNC(=N)N)CSCCC(=O)N2CN3CN(C2)C(=O)CCSC[C@@H](C(=O)N[C@@H](CCCNC(=N)N)C(=O)N[C@@H](Cc2c[nH]c4ccccc24)C(=O)O)NC(=O)[C@H](CCCNC(=N)N)NC(=O)[C@H](CC(C)C)NC(=O)[C@H](CCC(N)=O)NC(=O)[C@H](CCCNC(=N)N)NC(=O)[C@H](CSCCC3=O)NC(=O)[C@H](C)NC1=O (H-RCFRLACRQLRCRW-OH; linker 2-7-12 via TATA) | 19.6
5 | CCC[C@@H]1NC(=O)[C@H](CCCNC(=N)N)NC(=O)[C@H](Cc2ccccc2)NC(=O)[C@@H](NC(=O)[C@@H](N)CCCNC(=N)N)CSCCC(=O)N2CN3CN(C2)C(=O)CCSC[C@H](NC(=O)[C@@H]2CCCN2C1=O)C(=O)N[C@@H](CCCNC(=N)N)C(=O)N[C@@H](CCC(N)=O)C(=O)N[C@@H](CC(C)C)C(=O)N[C@@H](CCCNC(=N)N)C(=O)N[C@H](C(=O)N[C@@H](CCCNC(=N)N)C(=O)N[C@@H](Cc1c[nH]c2ccccc12)C(=O)O)CSCCC3=O (H-RCFR[Nva]PCRQLRCRW-OH; linker 2-7-12 via TATA) | 220
6 | CC(C)C[C@@H]1NC(=O)[C@H](CCC(N)=O)NC(=O)[C@H](CCCNC(=N)N)NC(=O)[C@@H]2CSCCC(=O)N3CN(CN(C3)C(=O)CCSC[C@H](NC(=O)[C@@H](N)CCCNC(=N)N)C(=O)N[C@@H](Cc3ccc4ccccc4c3)C(=O)N[C@@H](CCCNC(=N)N)C(=O)N[C@@H](CC(C)C)C(=O)N3CCC[C@H]3C(=O)N2)C(=O)CCSC[C@@H](C(=O)N[C@@H](CCCNC(=N)N)C(=O)N[C@@H](Cc2c[nH]c3ccccc23)C(=O)O)NC(=O)[C@H](CCCNC(=N)N)NC1=O | 6
7 | CC(C)C[C@@H]1NC(=O)[C@H](CCC(N)=O)NC(=O)[C@H](CCCNC(=N)N)NC(=O)[C@@H]2CSCCC(=O)N3CN(CN(C3)C(=O)CCSC[C@H](NC(=O)[C@@H](N)CCCNC(=N)N)C(=O)N[C@@H](Cc3ccccc3)C(=O)N[C@@H](CCCCCN)C(=O)N[C@@H](CC(C)C)C(=O)N3CCC[C@H]3C(=O)N2)C(=O)CCSC[C@@H](C(=O)N[C@@H](CCCNC(=N)N)C(=O)N[C@@H](Cc2c[nH]c3ccccc23)C(=O)O)NC(=O)[C@H](CCCNC(=N)N)NC1=O (H-RCF[hLys]LPCRQLRCRW-OH; linker 2-7-12 via TATA) | 51
8 | CC(C)C[C@@H]1NC(=O)[C@H](CCC(N)=O)NC(=O)[C@H](CCCNC(=N)N)NC(=O)[C@@H]2CSCCC(=O)N3CN(CN(C3)C(=O)CCSC[C@H](NC(=O)[C@@H](N)CCCNC(=N)N)C(=O)N[C@@H](Cc3ccccc3)C(=O)N[C@@H](CCNC(=N)N)C(=O)N[C@@H](CC(C)C)C(=O)N3CCC[C@H]3C(=O)N2)C(=O)CCSC[C@@H](C(=O)N[C@@H](CCCNC(=N)N)C(=O)N[C@@H](Cc2c[nH]c3ccccc23)C(=O)O)NC(=O)[C@H](CCCNC(=N)N)NC1=O (H-RCF[Agb]LPCRQLRCRW-OH; linker 2-7-12 via TATA) | 156
9 | CC[C@H](C)[C@@H]1NC(=O)[C@H](CCC(N)=O)NC(=O)[C@H](CCCNC(=N)N)NC(=O)[C@@H]2CSCCC(=O)N3CN(CN(C3)C(=O)CCSC[C@H](NC(=O)[C@@H](N)CCCNC(=N)N)C(=O)N[C@@H](Cc3ccccc3)C(=O)N[C@@H](CCCNC(=N)N)C(=O)N[C@@H](CC(C)C)C(=O)N3CCC[C@H]3C(=O)N2)C(=O)CCSC[C@@H](C(=O)N[C@@H](CCCNC(=N)N)C(=O)N[C@@H](Cc2c[nH]c3ccccc23)C(=O)O)NC(=O)[C@H](CCCNC(=N)N)NC1=O (H-RCFRLPCRQIRCRW-OH; linker 2-7-12 via TATA) | 78
10 | CC(C)C[C@@H]1NC(=O)[C@H](CCC(N)=O)NC(=O)[C@H](CCCNC(=N)N)NC(=O)[C@@H]2CSCCC(=O)N3CN(CN(C3)C(=O)CCSC[C@H](NC(=O)[C@@H](N)CCCNC(=N)N)C(=O)N[C@@H](Cc3c[nH]c4ccc(O)cc34)C(=O)N[C@@H](CCCNC(=N)N)C(=O)N[C@@H](CC(C)C)C(=O)N3CCC[C@H]3C(=O)N2)C(=O)CCSC[C@@H](C(=O)N[C@@H](CCCNC(=N)N)C(=O)N[C@@H](Cc2c[nH]c3ccccc23)C(=O)O)NC(=O)[C@H](CCCNC(=N)N)NC1=O | 94

Other lines, results leading:

Row | Ki [nM] | SMILES
11 | 40 | Cc1ccccc1C[C@@H]1NC(=O)[C@@H](NC(=O)[C@@H](N)CCCNC(=N)N)CSCCC(=O)N2CN3CN(C2)C(=O)CCSC[C@H](NC(=O)[C@@H]2CCCN2C(=O)[C@H](CC(C)C)NC(=O)[C@H](CCCNC(=N)N)NC1=O)C(=O)N[C@@H](CCCNC(=N)N)C(=O)N[C@@H](CCC(N)=O)C(=O)N[C@@H](CC(C)C)C(=O)N[C@@H](CCCNC(=N)N)C(=O)N[C@H](C(=O)N[C@@H](CCCNC(=N)N)C(=O)N[C@@H](Cc1c[nH]c2ccccc12)C(=O)O)CSCCC3=O
12 | 3 | CC(C)C[C@@H]1NC(=O)[C@H](CCC(N)=O)NC(=O)[C@H](CCCNC(=N)N)NC(=O)[C@@H]2CSCCC(=O)N3CN(CN(C3)C(=O)CCSC[C@H](NC(=O)[C@@H](N)CCCNC(=N)N)C(=O)N[C@@H](Cc3cccnc3)C(=O)N[C@@H](CCCNC(=N)N)C(=O)N[C@@H](CC(C)C)C(=O)N3CCC[C@H]3C(=O)N2)C(=O)CCSC[C@@H](C(=O)N[C@@H](CCCNC(=N)N)C(=O)N[C@@H](Cc2c[nH]c3ccccc23)C(=O)O)NC(=O)[C@H](CCCNC(=N)N)NC1=O
13 | 39 | Cc1ccc(C[C@@H]2NC(=O)[C@@H](NC(=O)[C@@H](N)CCCNC(=N)N)CSCCC(=O)N3CN4CN(C3)C(=O)CCSC[C@H](NC(=O)[C@@H]3CCCN3C(=O)[C@H](CC(C)C)NC(=O)[C@H](CCCNC(=N)N)NC2=O)C(=O)N[C@@H](CCCNC(=N)N)C(=O)N[C@@H](CCC(N)=O)C(=O)N[C@@H](CC(C)C)C(=O)N[C@@H](CCCNC(=N)N)C(=O)N[C@H](C(=O)N[C@@H](CCCNC(=N)N)C(=O)N[C@@H](Cc2c[nH]c3ccccc23)C(=O)O)CSCCC4=O)cc1
14 | 326 | CC(C)C[C@@H]1NC(=O)[C@H](CCCNC(=N)N)NC(=O)[C@H](Cc2ccccc2)NC(=O)[C@@H](NC(=O)[C@@H](N)CCCNC(=N)N)CSCCC(=O)N2CN3CN(C2)C(=O)CCSC[C@H](NC(=O)[C@@H]2CCCN2C1=O)C(=O)N[C@@H](CCCNC(=N)N)C(=O)N[C@@H](CCC(N)=O)C(=O)N[C@@H](C(C)C)C(=O)N[C@@H](CCCNC(=N)N)C(=O)N[C@H](C(=O)N[C@@H](CCCNC(=N)N)C(=O)N[C@@H](Cc1c[nH]c2ccccc12)C(=O)O)CSCCC3=O (H-RCFRLPCRQVRCRW-OH; linker 2-7-12 via TATA)
15 | 570 | CC(C)C[C@@H]1NC(=O)[C@H](CCC(N)=O)NC(=O)[C@H](CCCNC(=N)N)NC(=O)[C@@H]2CSCCC(=O)N3CN(CN(C3)C(=O)CCSC[C@H](NC(=O)[C@@H](N)CCCNC(=N)N)C(=O)N[C@@H](Cc3ccccc3)C(=O)N[C@@H](CCCNC(=N)N)C(=O)N[C@@H](C(C)C)C(=O)N3CCC[C@H]3C(=O)N2)C(=O)CCSC[C@@H](C(=O)N[C@@H](CCCNC(=N)N)C(=O)N[C@@H](Cc2c[nH]c3ccccc23)C(=O)O)NC(=O)[C@H](CCCNC(=N)N)NC1=O (H-RCFRVPCRQLRCRW-OH; linker 2-7-12 via TATA)
16 | 160 | CC(C)C[C@@H]1NC(=O)[C@H](CCC(N)=O)NC(=O)[C@H](CCCNC(=N)N)NC(=O)[C@@H]2CSCCC(=O)N3CN(CN(C3)C(=O)CCSC[C@H](NC(=O)[C@@H](N)CCCNC(=N)N)C(=O)N[C@@H](C(C)C)C(=O)N[C@@H](CCCNC(=N)N)C(=O)N[C@@H](CC(C)C)C(=O)N3CCC[C@H]3C(=O)N2)C(=O)CCSC[C@@H](C(=O)N[C@@H](CCCNC(=N)N)C(=O)N[C@@H](Cc2c[nH]c3ccccc23)C(=O)O)NC(=O)[C@H](CCCNC(=N)N)NC1=O (H-RCVRLPCRQLRCRW-OH; linker 2-7-12 via TATA)

Source: ChEMBL document CHEMBL3992518, “Peptide Macrocycle Inhibitor of Coagulation Factor XII with Subnanomolar Affinity and High Target Selectivity” (J Med Chem, 2017)
